The values that follow come from US20120128654A1, “Allantoin Administration for the Treatment of Neurodegenerative Disease and Neurotrauma” (UNIVERSITY OF CINCINNATI, priority 2009, published 2012).

The series is described as follows: Plasma purine levels following subcutaneous purine and KO pellet administration. Particulars: rats, four days following pellet implantation; for plasma allantoin levels: matrix-driven s.c. pellets, vs control. In kind it is in vivo, Sprague Dawley rats. The source says: Continuous s.c. delivery of INO, KO and ALL was achieved by implanting matrix-driven pellets into the s.c. space. Animals were anesthetized with isofluorane and prepared for surgery using sterile procedures. A small incision was made posterior to the scapula and the pellet was placed in the subscapular space contralateral to the incision. This placement technique prevents migration of the pellet towards the incision, thereby reducing the incidents of rejection. Finally, the incision was closed using aseptic procedures. To determine the roles of UA and allantoin in inosine-mediated neuroprotection, animals were treated with the urate oxidase inhibitor KO. This approach has been widely used to prevent the enzymatic metabolism of UA to allantoin in other rodent models of disease.
For HPLC analysis of plasma inosine, hypoxanthine, xanthine and UA, an antioxidant solution was added to an equal volume of plasma and samples were centrifuged at 14,000 g for 20 minutes at 4° C. The supernatant was collected for HPLC analysis. Samples were separated on a Hypersil ODS column (Thermo-Fisher Scientific, Waltham, Mass.). Compounds were detected using a Photodiode Array Detector attached to a Waters 2695 Solvent Delivery System under the following conditions: the mobile phase consisted of 0.5% KH2PO4 at a pH of 4.6. Unknown samples were quantified against a 6-point standard curve with a minimum r^2 of 0.97. Quality control samples were interspersed with each run to ensure HPLC calibration. Data are expressed in μg/ml.
For plasma analysis of allantoin venous blood was obtained from the right ventricle (rat) and collected from repeated blood draws (African green monkey). Blood was immediately centrifuged at 10,500 rpms (this needs to be in G) for 5 minutes. Supernatant was then removed and analyzed for allantoin. Enzymatic detection of allantoin was performed as previously described with the exception of reaction volumes being adjusted to accommodate the use of a 96 well microtiter plate (Muratsubaki et al., Enzymatic assay of allantoin in serum using allantoinase and allantoate amidohydrolase, Anal. Biochem. 359:161-166 (2006)). […] Following a 15 minute incubation, absorbance was read on a spectrometer at 340 nm. […] Following a 10 minute incubation absorbance was once again measured at 340 nm. The final absorbance was subtracted from the absorbance following the addition of allantoinase. […]
To determine the impact of peripheral administration of purines on plasma purine levels, animals were divided into 5 groups INO (n=12), INO/KO (n=12), ALL (n=12), KO (n=12), and sham pellet implantation. […] Plasma ALL levels were determined enzymatically.

In the case of `NC(=O)NC1NC(=O)NC1=O` (stereo not shown) [allantoin], the plasma allantoin levels result is given as “increase in plasma allantoin similar to what was seen in the inosine only group”. Besides, the plasma allantoin levels entry (listed as Allantoin) is “significantly increased”.

Turning to `OC[C@H]1O[C@@H](n2cnc3c(O)ncnc32)[C@H](O)[C@@H]1O` [inosine], the plasma allantoin levels entry was “significantly increased”. Also, where the note is “s.c. pellets”, the “plasma levels of any other purines” value is “without affecting”.
